# Several values for one entry are separate records, joined by “and”; a condition that tells them apart may be missing. Equal entries are not always repeated. Where two headings read alike, the source gives them in different places.
# Tests used:
# [1] = molecular target: T1, CDK12 kinase domain/CCNK-3xHA (Homo sapiens, UniProt Q9NYV4); assay: Co-expression of 3xFLAG-CDK12 kinase domain with CCNK-3xHA; type: cell-based; settings: 293T, HQ461 8 hr; not with G731E or G731R
# T1 construct: ORFs encoding residues 715–1052 of CDK12 and residues 693–1030 of CDK13; expressed in transfected cells; host or cells: 293T
# Procedure: ORFs encoding residues 715–1052 of CDK12 and residues 693–1030 of CDK13 were cloned into a pCDNA3.1-N-3xFLAG vector. For setting up cells for co-transfection, 0.6 million 293 T cells were seeded per well in 6-well tissue-culture plates and allowed to attach to plates overnight. These cells were then transfected with 50 ng of pCDNA3.1-3xFLAG-CDK12/13 kinase domain, 50 ng of pCDNA3.1-CCNK-3xHA, and 400 ng of the empty pCDNA3.1 vector. Twenty-four hours post transfection, cells were treated with HQ461 for 8 hr, and lysates were collected for western blotting with anti-FLAG and anti-HA antibodies.
# [2] = system: A549 cells expressing sgRNAs (NTC, DDB1, RBX1, UBE2G1); assay: Cell viability assay, A549 cells expressing non-targeting control or sgRNAs targeting DDB1, RBX1 or UBE2G1; type: cell-based, Homo sapiens; settings: for CellTiter-Glo (ATP): raw signal; for IC50: Homo sapiens
# Procedure: (§1) Seven hundred A549 cells or 1,000 HCT-116 cells in 50 µL of medium were plated per well in 384-well flat clear bottom white polystyrene TC-treated microplates (Corning, Corning, USA). After overnight attachment, cells were dosed with a serial dilution of HQ461 with a D300e digital dispenser (Tecan, Männedorf, Switzerland). Cell survival was measured 72 hr later using CellTiter-Glo luminescent cell viability assay kit (Promega, Madison, USA) following vendor instructions. Luminescence was recorded by EnVison multimode plate reader (PerkinElmer, Waltham, USA). IC50 was determined with GraphPad Prism using baseline correction (by normalizing to DMSO control), the asymmetric (five parameter) equation, and least squares fit.
# Two sgRNAs per gene were chosen from the Brunello library for DDB1 (5’-[…]-3’ and 5’-[…]-3’), RBX1 (5’- […]-3’ and 5’-[…]-3’), and UBE2G1 (5’-[…]-3’ and 5’- […]-3’). Annealed sgRNA oligos were cloned into the lentiCRISPR v2 vector. Lentiviral packaging was performed by co-transfecting the resulting plasmids with psPAX2 (Addgene 12260) and pMD2.G (Addgene 12259) into 293 T cells. Media collected from transfected 293 T cells was used to infect A549 cells at MOI ~ 5 for 4 days. The resulting cells were tested for their sensitivity to HQ461 using methods describe in the previous session cell viability assay.
# HCT-116 cells = assay: Cell viability assay, parental HCT-116 and HQ461-resistant HCT-116 clones; type: cell-based, Homo sapiens; settings: HCT-116 Parental, raw signal, listed as 0461
# Procedure: as §1
# Parental HCT-116 were plated sparsely on 10 cm plates to allow the isolation of ten individual clones. Each of these ten clones were expanded to one confluent 15 cm plate to establish ten independent cell populations. One million cells from each population were then plated on one 10 cm plate and treated with 20 µM HQ461 continuously for two weeks, with media change every 3 to 4 days. HQ461 resistant clones emerged from 5 out of the 10 populations. These clones were isolated, expanded, and tested for their sensitivity to HQ461 using cell viability assay. Five HQ461-resistant clones selected from independent populations were subjected to genomic DNA isolation as described in the previous session. Their genomic DNAs were then pooled in equal amounts for whole-exome sequencing at 200x average coverage (Novogene, Beijing, China). As a control, genomic DNAs isolated from the corresponding cell populations before HQ461 selection were also pooled for whole-exome sequencing. Raw sequencing data have been deposited to NCBI GEO (GSE153707).
# T1 sequence (Q9NYV4 715-1052): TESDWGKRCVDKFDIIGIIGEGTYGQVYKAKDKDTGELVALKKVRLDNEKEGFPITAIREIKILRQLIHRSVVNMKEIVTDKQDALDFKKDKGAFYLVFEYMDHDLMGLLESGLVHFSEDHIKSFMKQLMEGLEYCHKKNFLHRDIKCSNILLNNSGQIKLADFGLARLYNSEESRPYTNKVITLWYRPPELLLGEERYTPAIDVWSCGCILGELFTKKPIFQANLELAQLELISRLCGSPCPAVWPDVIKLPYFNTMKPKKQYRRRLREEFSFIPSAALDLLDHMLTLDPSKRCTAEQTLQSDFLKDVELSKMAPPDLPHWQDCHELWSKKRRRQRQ
# T1 sequence (O75909 whole entry partner, the tested form may be a part): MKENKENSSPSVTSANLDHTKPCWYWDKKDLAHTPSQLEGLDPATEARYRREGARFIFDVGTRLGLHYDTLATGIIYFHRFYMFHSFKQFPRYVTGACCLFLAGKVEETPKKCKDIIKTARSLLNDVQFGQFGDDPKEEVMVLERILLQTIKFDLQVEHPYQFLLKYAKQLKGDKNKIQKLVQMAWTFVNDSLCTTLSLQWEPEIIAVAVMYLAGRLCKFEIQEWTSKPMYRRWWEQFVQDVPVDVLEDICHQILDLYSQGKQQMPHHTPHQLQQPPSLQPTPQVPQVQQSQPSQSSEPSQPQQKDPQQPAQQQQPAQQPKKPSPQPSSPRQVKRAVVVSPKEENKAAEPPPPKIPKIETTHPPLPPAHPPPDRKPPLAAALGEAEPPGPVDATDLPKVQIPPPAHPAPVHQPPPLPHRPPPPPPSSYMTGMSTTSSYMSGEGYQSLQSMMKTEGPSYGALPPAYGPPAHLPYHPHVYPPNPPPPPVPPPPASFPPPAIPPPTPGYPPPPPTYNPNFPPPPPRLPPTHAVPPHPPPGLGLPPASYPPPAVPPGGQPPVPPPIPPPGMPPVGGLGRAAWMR
# T1 sequence (Q16531 2-1140 partner limits assumed): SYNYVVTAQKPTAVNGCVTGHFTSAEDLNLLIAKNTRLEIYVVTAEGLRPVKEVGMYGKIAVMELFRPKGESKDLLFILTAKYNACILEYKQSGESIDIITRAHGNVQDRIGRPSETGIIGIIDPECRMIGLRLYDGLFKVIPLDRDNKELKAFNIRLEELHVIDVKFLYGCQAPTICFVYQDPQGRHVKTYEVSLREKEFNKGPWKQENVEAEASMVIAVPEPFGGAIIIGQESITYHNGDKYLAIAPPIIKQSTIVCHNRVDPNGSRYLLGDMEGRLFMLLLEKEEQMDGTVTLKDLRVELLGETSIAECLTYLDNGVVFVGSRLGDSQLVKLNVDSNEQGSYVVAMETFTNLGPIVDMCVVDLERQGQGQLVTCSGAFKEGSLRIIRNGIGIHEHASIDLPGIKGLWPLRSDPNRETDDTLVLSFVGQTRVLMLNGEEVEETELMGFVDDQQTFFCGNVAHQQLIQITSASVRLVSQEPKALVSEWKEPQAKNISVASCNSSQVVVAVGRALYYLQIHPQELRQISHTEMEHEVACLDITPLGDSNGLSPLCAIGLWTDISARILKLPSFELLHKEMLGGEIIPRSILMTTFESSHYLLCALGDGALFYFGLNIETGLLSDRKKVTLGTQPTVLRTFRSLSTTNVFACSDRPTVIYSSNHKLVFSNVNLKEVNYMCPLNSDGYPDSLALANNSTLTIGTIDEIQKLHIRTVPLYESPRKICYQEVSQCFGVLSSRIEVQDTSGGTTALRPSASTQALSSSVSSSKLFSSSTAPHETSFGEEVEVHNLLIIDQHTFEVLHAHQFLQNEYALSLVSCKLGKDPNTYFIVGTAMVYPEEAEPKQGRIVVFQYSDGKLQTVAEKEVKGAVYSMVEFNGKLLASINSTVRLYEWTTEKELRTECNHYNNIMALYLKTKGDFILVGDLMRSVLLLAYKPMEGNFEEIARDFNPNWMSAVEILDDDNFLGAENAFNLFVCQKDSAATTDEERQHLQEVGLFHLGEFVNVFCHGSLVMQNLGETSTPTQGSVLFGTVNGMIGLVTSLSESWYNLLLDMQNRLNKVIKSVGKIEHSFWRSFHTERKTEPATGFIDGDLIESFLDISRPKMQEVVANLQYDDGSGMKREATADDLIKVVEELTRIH
smiles,measurement,setting,value
"Cc1cccc(Nc2nc(CC(=O)Nc3ncc(C)s3)cs2)n1 [HQ461, 2-(2-((6-methylpyridin-2-yl)amino)thiazol-4-yl)-N-(5-methylthiazol-2-yl)acetamide]",CCNK destabilization with co-expressed wild-type CDK12 kinase domain,[1],sufficient for mediating HQ461-dependent destabilization of CCNK
same,CellTiter-Glo (ATP),"[2]; A549 sgDDB1-1, HQ461 1.04e-6 M",266440 and 262730 and 269540
same,CellTiter-Glo (ATP),"[2]; A549 sgDDB1-1, HQ461 1.84e-6 M",260200 and 241370 and 247600
same,CellTiter-Glo (ATP),"[2]; A549 sgDDB1-1, HQ461 5e-5 M",103060 and 118120 and 131920
same,CellTiter-Glo (ATP),"[2]; A549 sgDDB1-1, HQ461 1.16E-07 M",267930 and 251180 and 224010
same,CellTiter-Glo (ATP),"[2]; A549 sgDDB1-1, HQ461 2.04E-07 M",317680 and 266950 and 274210
same,CellTiter-Glo (ATP),"[2]; A549 sgDDB1-1, HQ461 3.52E-07 M",250370 and 237750 and 246820
same,CellTiter-Glo (ATP),"[2]; A549 sgDDB1-1, HQ461 6.08E-07 M",264740 and 257780 and 224550
same,CellTiter-Glo (ATP),"[2]; A549 sgDDB1-1, HQ461 6.80E-08 M",250520 and 230710 and 232990
same,CellTiter-Glo (ATP),"[2]; A549 sgNTC, HQ461 1.04e-6 M",250120 and 267660 and 292550
same,CellTiter-Glo (ATP),"[2]; A549 sgNTC, HQ461 1.84e-6 M",177290 and 247760 and 214770
same,CellTiter-Glo (ATP),"[2]; A549 sgNTC, HQ461 2.88e-5 M",34040
same,CellTiter-Glo (ATP),"[2]; A549 sgNTC, HQ461 5e-5 M",18410 and 24360 and 23900
same,CellTiter-Glo (ATP),"[2]; A549 sgNTC, HQ461 1.16E-07 M",358110 and 293700 and 340660
same,CellTiter-Glo (ATP),"[2]; A549 sgNTC, HQ461 2.04E-07 M",291450 and 300990 and 265430
same,CellTiter-Glo (ATP),"[2]; A549 sgNTC, HQ461 3.52E-07 M",289350 and 289810 and 317840
same,CellTiter-Glo (ATP),"[2]; A549 sgNTC, HQ461 6.08E-07 M",260230 and 280040 and 269860
same,CellTiter-Glo (ATP),"[2]; A549 sgNTC, HQ461 6.80E-08 M",322880 and 295000 and 291440
same,CellTiter-Glo (ATP),"[2]; A549 sgRBX1-1, HQ461 1.04e-6 M",306380 and 286480 and 313050
same,CellTiter-Glo (ATP),"[2]; A549 sgRBX1-1, HQ461 1.84e-6 M",225540 and 237470 and 230500
same,CellTiter-Glo (ATP),"[2]; A549 sgRBX1-1, HQ461 5e-5 M",43060 and 31790 and 35930
same,CellTiter-Glo (ATP),"[2]; A549 sgRBX1-1, HQ461 1.16E-07 M",288560 and 290760 and 286800
same,CellTiter-Glo (ATP),"[2]; A549 sgRBX1-1, HQ461 2.04E-07 M",262410 and 264720 and 241220
same,CellTiter-Glo (ATP),"[2]; A549 sgRBX1-1, HQ461 3.52E-07 M",292190 and 292940 and 303380
same,CellTiter-Glo (ATP),"[2]; A549 sgRBX1-1, HQ461 6.08E-07 M",295780 and 267950 and 240730
same,CellTiter-Glo (ATP),"[2]; A549 sgRBX1-1, HQ461 6.80E-08 M",297310 and 267380 and 272530
same,CellTiter-Glo (ATP),"[2]; A549 sgUBE2G1-1, HQ461 1.04e-6 M",312980 and 335750 and 320370
same,CellTiter-Glo (ATP),"[2]; A549 sgUBE2G1-1, HQ461 1.84e-6 M",297250 and 326340 and 338010
same,CellTiter-Glo (ATP),"[2]; A549 sgUBE2G1-1, HQ461 2.88e-5 M",51820 and 43500 and 48750
same,CellTiter-Glo (ATP),"[2]; A549 sgUBE2G1-1, HQ461 5e-5 M",35610 and 27850 and 21460
same,CellTiter-Glo (ATP),"[2]; A549 sgUBE2G1-1, HQ461 1.16E-07 M",299870 and 310810 and 340290
same,CellTiter-Glo (ATP),"[2]; A549 sgUBE2G1-1, HQ461 2.04E-07 M",303360 and 350750 and 286460
same,CellTiter-Glo (ATP),"[2]; A549 sgUBE2G1-1, HQ461 3.52E-07 M",341410 and 309550 and 308880
same,CellTiter-Glo (ATP),"[2]; A549 sgUBE2G1-1, HQ461 6.08E-07 M",297850 and 310080 and 327760
same,CellTiter-Glo (ATP),"[2]; A549 sgUBE2G1-1, HQ461 6.80E-08 M",296160 and 325630 and 360740
same,IC50,"[2]; A549, independent second sgRNA, Figure 1-figure supplement 2D, read-out: IC50 on the viability of A549 cells expressing sgRNA targeting DDB1",> 28.8 µM
same,IC50,"[2]; A549, independent second sgRNA, Figure 1-figure supplement 2D, read-out: IC50 on the viability of A549 cells expressing sgRNA targeting RBX1",11 µM
same,IC50,"[2]; A549, independent second sgRNA, Figure 1-figure supplement 2D, read-out: IC50 on the viability of A549 cells expressing sgRNA targeting UBE2G1",13.6 µM
same,IC50,"[2]; A549, sgDDB1, Figure 1D, read-out: IC50 on the viability of A549 cells expressing sgRNA targeting DDB1",> 28.8 µM
same,IC50,"[2]; A549, sgNTC, Figure 1D, read-out: IC50 on the viability of A549 cells expressing non-targeting control (NTC)",2.3 µM
same,IC50,"[2]; A549, sgRBX1, Figure 1D, read-out: IC50 on the viability of A549 cells expressing sgRNA targeting RBX1",10.9 µM
same,IC50,"[2]; A549, sgUBE2G1, Figure 1D, read-out: IC50 on the viability of A549 cells expressing sgRNA targeting UBE2G1",11.9 µM
same,CellTiter-Glo (ATP),HCT-116 cells; 1.43856e-6 M,1.76E+06 and 1.77E+06 and 2.14E+06 and 2.07E+06
same,CellTiter-Glo (ATP),HCT-116 cells; 1.85257e-5 M,147560 and 197570
same,CellTiter-Glo (ATP),HCT-116 cells; 1.91632e-5 M,303300 and 182560
same,CellTiter-Glo (ATP),HCT-116 cells; 3.09439e-5 M,96830 and 121990
